One molecule from patent EP0209237A2, “Vinyl-glycyl-amino-beta-lactam derivatives” (BEECHAM GROUP PLC, priority 1985, dated 1987) can be followed below.

Values after ≈ are worked out from the molar mass of the structure shown. Read-outs that look alike come from different tables or passages of the source.

Broadly, the MIC is the lowest concentration that inhibits growth of the organism.

In data set [1] the test system is S.aureus Smith. The experiment in a line: MIC against the infecting strain (Table 4). In kind it is cell-based. The conditions noted are these: Staphylococcus aureus.
The test system of data set [2] is S.agalactiae 2798. The data set is described as follows: MIC against the infecting strain (Table 4). The conditions noted are these: Streptococcus agalactiae. The class given is cell-based.
The test system of data set [3] is E.coli 96 R-. The experiment in a line: CD50, protection of mice infected with a lethal inoculum. The class given is in vivo. Conditions: Escherichia coli, 96R, read-out: Total CD50. An excerpt: (§1) The following Table gives CD50 values obtained after infecting groups of mice with a lethal inoculum of various bacteria and treating the mice with the compounds quoted. The CD50 value then represents the amount of compound necessary to protect 50% of the animals.

The test system of data set [4] is S.agalactiae 2798. Described as above. The class given is in vivo. Conditions: S.agalactiae 2798, p.o.
Excerpt: as §1

The subject of data set [5] is S.aureus Smith. The data set is described as above. In kind it is in vivo.
Excerpt: as §1

Data set [6] can be described thus: Squirrel monkey plasma levels. In kind it is in vivo.
Data set [7] deals with E.coli 96 R-. The data set is described as follows: MIC against the infecting strain (Table 4). In kind it is cell-based. The conditions noted are these: Escherichia coli.
The subject of another data set is E.coli NCTC 10418. The data set is described as follows: Minimum Inhibitory Concentration (MIC), agar dilution. The class given is cell-based. The conditions noted are these: 5% v/v horse blood agar, two-fold dilutions, read after 24 hours; unit assumed. The method, then: (§2) The following Table gives Minimum Inhibitory Concentration (MIC) values for some of the compounds of the invention against S.pyogenes CN 10 and E.coli NCTC 10418. The E. coli was grown in tryptone soya broth and the S. pyogenes was grown in Todd Hewitt broth. The microorganisms were grown for 24hours and lul samples were then inoculated on to agar plates (comprising 5% v/v live horse blood agar) to which had been added the compounds of the invention at a series of two-fold dilutions.
(In agar dilution, organisms are placed on agar that contains the substance at set levels.)

Another data set concerns S.pyogenes CN 10. The data set is described as above. The class given is cell-based. The conditions noted are these: 5% v/v horse blood agar, two-fold dilutions, read after 24 hours; unit assumed. The protocol: as §2

`CC1(C)S[C@@H]2[C@H](NC(=O)[C@H](N)C=C(Cl)Cl)C(=O)N2[C@H]1C(=O)O` [Example 5 (D-stereoisomer), 6β-(D-2-amino-4,4-dichlorobut-3-enamido)penicillanic acid]: the values for the MIC with S.aureus Smith [1], with S.agalactiae 2798 [2] and with E.coli 96 R- [7] were 0.06 µg/mL (≈ 0.163 µM), 0.06 µg/mL (≈ 0.163 µM) and 2 µg/mL (≈ 5.43 µM), respectively. Besides, the ED50 in the data set with E.coli 96 R- [3] (po) is 40 mg/kg; in the data set on E.coli 96 R- [3] (sc) it was 22 mg/kg; in the data set with S.agalactiae 2798 [4] (Streptococcus agalactiae, 2798, po, read-out: Total CD50) it was 0.9 mg/kg; with S.aureus Smith [5] (Staphylococcus aureus, sc, read-out: Total CD50) it was 0.08 mg/kg. Also, the figures for the “Total CD50” value in the data set on S.agalactiae 2798 [4] and with S.aureus Smith [5] (s.c.) were 0.6 mg/kg and 0.09 mg/kg, respectively. Moreover, in [6] (15 minutes, read-out: Plasma Levels, Time in Minutes 15), the concentration at 0.25 h was 20700 ng/mL. Also, the concentration at 0.5 h in data set [6] (30 minutes, read-out: Plasma Levels, Time in Minutes 30) was 28800 ng/mL. In addition, the concentration at 1 h in data set [6] (60 minutes, read-out: Plasma Levels, Time in Minutes 60) stood at 24300 ng/mL. The concentration at 2 h in data set [6] (120 minutes, read-out: Plasma Levels, Time in Minutes 120) was determined as 16800 ng/mL. Also, the concentration at 4 h in [6] (240 minutes, read-out: Plasma Levels, Time in Minutes 240) came out at 2400 ng/mL. Further, in [6] (360 minutes, read-out: Plasma Levels, Time in Minutes 360), the concentration at 6 h was 1400 ng/mL. Besides, in data set [6] (read-out: Area under the curve), the AUC came to 63000 ng·h/mL. For the same molecule, the MIC E. coli NCTC 10418 against E.coli NCTC 10418 came out at 2 µg/mL (≈ 5.43 µM). The molecule also showed an MIC S. pyogenes CN 10 against S.pyogenes CN 10 of under 0.03 µg/mL.
